One compound from publication PMC7582727, “Functional Impact of BeKm-1, a High-Affinity hERG Blocker, on Cardiomyocytes Derived from Human-Induced Pluripotent Stem Cells” (International Journal of Molecular Sciences, 2020) can be followed below.

Positions of bridges follow the written chain, without caps; N, C: chain ends. Residues, ends and D or L forms follow the SMILES beside them.

For the data set, the system named is hiPS-CMs (clone C2a, ventricular-like). The class given is cell-based, human. How it is done: Although the effect of BeKm-1 on APD90 was expected from a block of hERG channels, the other effects (i.e., membrane depolarization, reduction in AP frequency, and decrease of maximal upstroke velocity) are most likely a secondary consequence of the absence of IK1 in hiPS-CMs due to incomplete maturation level of these cells during the differentiation process (a recurrent problem in differentiating hiPS into cardiomyocytes). The 5 nM concentration of BeKm-1 was chosen to spare a fraction of the hERG channels in these cells. Therefore, we also tested a higher concentration (100 nM) in order to affect all hERG channels. […] This observation is coherent with the fact that a stronger IK1 current would be needed in hiPS-CMs to maintain a more negative membrane potential typical for CMs. […] In this technique, a current density of 2.8 pA/pF is injected in order to successfully reach an RMP value of −80 mV. […] Representative APs, paced at a constant cycling length of 700 ms with IK1, are shown before and after the application of 5 nM BeKm-1 (Figure 3A,B). […] Logically, these APs were excluded from further analysis of AP parameters. IK1 in silico injection efficiently allowed for setting a real resting membrane potential (RMP) at −80 mV in these hiPS-CMs, causing the cessation of spontaneous APs (not shown). As a result of IK1 taking the relay over IKr, there was no effect of 5 nM BeKm-1 on RMP (Figure 3C). […] The average prolongation of APD90 and variability is also detailed cell by cell (Figure S3).
hiPS-CMs: All experiments were performed on the human-induced pluripotent stem cell (hiPSC) clone C2a that has been previously characterized, including cardiac differentiation and electrophysiology data. Cells were expanded on stem cell-qualified matrigel-coated plates (0.05 mg/mL; BD Bioscience, Le Pont de Claix, France) and cultured in StemMACS iPS-BREW XF medium (Miltenyi Biotec, Paris, France). Cells were passaged every […] using Gentle Cell Dissociation Buffer (StemCell Technologies, Grenoble, France). Prior to differentiation, cells were cultured as a monolayer in StemMACS iPS-brew supplemented with 1 × Y-27632 Rho-associated, coiled-coil containing protein kinase (ROCK) inhibitor (StemCell Technologies, Grenoble, France). When hiPSCs reached proper confluence, they were differentiated into cardiomyocytes using previously described « Matrix sandwich » protocol. At day 20 ± 1 of differentiation, beating cardiomyocytes were manually dissected and isolated from non-beating cells. Briefly, cardiomyocytes were washed with phosphate-buffered saline (PBS) and treated with TrypLE Express (10x) (Thermo Fisher Scientific, Illkirch-Graffenstaden, France) for 5 min at 37 °C. The enzyme was inactivated by adding RPMI1640 medium containing 20% (vol/vol) KnockOut Serum Replacement (KSR) (Thermo Fisher Scientific, Illkirch-Graffenstaden, France). The supernatant was removed, and cells were suspended in RPMI1640 medium containing 20% (vol/vol) KSR and ROCK inhibitor. Then, the cells were plated on specific supports suitable for functional assessments.
Manual patch clamp: Single-cell dissociated hiPS-CMs were plated at low density on matrigel-coated 35 mm Petri dishes (Nunc from Thermo Fisher Scientific, Illkirch-Graffenstaden, France). Electrophysiological experiments were performed 12 to 14 days after dissociation. APs were recorded in the current-clamp mode, using the amphotericin-B-perforated patch-clamp technique. All experiments were conducted at 37 °C. APs were recorded either at basal state (spontaneous APs) or using the dynamic patch-clamp method to electronically mimic the expression of the inward rectifier potassium current, IK1 [23, 24]. The resting membrane potential (RMP) was set to −80 ± 5 mV by injecting 2 to 2.8 pA/pF in silico IK1 density. This level of current was set so that about 80% of the ventricular-like hiPS-CMs could reach these physiological RMP values. […]

[1] abbreviates: 5 nM, dynamic clamp, paced every 700 ms.

For the setting “5 nM vs vehicle, average, dynamic clamp”, `CC[C@H](C)[C@H](NC(=O)[C@H](CC(=O)O)NC(=O)[C@@H](NC(=O)[C@@H]1CCCN1C(=O)[C@@H](N)CCCNC(=N)N)[C@@H](C)O)C(=O)N[C@@H](CCCCN)C(=O)N[C@H]1CSSC[C@@H]2NC(=O)[C@H](CCCNC(=N)N)NC(=O)CNC(=O)[C@H](CC(N)=O)NC(=O)[C@H]([C@@H](C)O)NC(=O)[C@H](CCCCN)NC(=O)CNC(=O)[C@H](Cc3ccccc3)NC(=O)[C@H](CCCNC(=N)N)NC(=O)[C@H](CO)NC(=O)[C@H](CCCCN)NC(=O)[C@@H]3CSSC[C@@H](C(=O)N[C@@H](Cc4ccccc4)C(=O)O)NC(=O)[C@H](CC(=O)O)NC(=O)[C@H](CSSC[C@H](NC(=O)[C@H](CCC(N)=O)NC(=O)[C@H](Cc4ccc(O)cc4)NC(=O)[C@H](CO)NC(=O)[C@H](CCC(=O)O)NC(=O)[C@H](CO)NC1=O)C(=O)N[C@@H](Cc1ccccc1)C(=O)N1CCC[C@H]1C(=O)N[C@@H](C(C)C)C(=O)N3)NC(=O)[C@H](Cc1ccccc1)NC(=O)CNC(=O)[C@H](CC(N)=O)NC(=O)[C@H](C(C)C)NC2=O` [BeKm-1] (H-RPTDIKCSESYQCFPVCKSRFGKTNGRCVNGFCDCF-OH; disulfide 7-28, 13-33, 17-35 (inferred); N-terminus and C-terminus assumed) displayed an APD90 prolongation of 29%. The “resting membrane potential (RMP)” value (5 nM, RMP set to −80 mV by IK1 injection, paced every 700 ms) was “no effect”. The APD90 (5 nM, dynamic clamp, cycle length 700 ms, 37 °C, vehicle 121.9 ± 11.0 ms, n = 10, mean ± SEM) amounted to 156.7 ± 16.9 ms. Moreover, under setting [1], the AP overshoot result was “no significant effect”; the “APD30 and APD50” value is recorded as “did not alter”; the maximal upstroke velocity entry was “no significant effect”. In addition, the APD90 variability entry (5 nM, dynamic clamp, Poincaré plot) is listed as “greater APD90 variability”.
